In US8952024B2, “Herbicidal pyrimidone derivatives” (E I du Pont de Nemours and Company, priority 2009, dated 2015):

Tests used:
Format in all cases: in vivo
[1] = test system: Italian ryegrass (Lolium multiflorum); experiment: Test B pre-/postemergence plant response; conditions: for Ryegrass, Italian plant response rating (0 to 100 scale): 62 g ai/ha, 0 is no effect, 13 to 15 days
Outline: (§1)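 Visual injury, 0–100 scale (100 = complete control), rated against controls after 13 to 15 days in greenhouse. Pre-emergence: seeds in loam/sand soil, treated at planting. Post-emergence: 1- to 4-leaf plants (2 to 18 cm) in peat/vermiculite medium. Compounds formulated in non-phytotoxic solvent with surfactant.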

[2] = test system: bermudagrass (Cynodon dactylon); experiment: Test B pre-/postemergence plant response; conditions: for Bermudagrass plant response rating (0 to 100 scale): 62 g ai/ha, 0 is no effect, 13 to 15 days
Outline: as §1

[3] = test system: blackgrass (Alopecurus myosuroides); experiment: Test B pre-/postemergence plant response; conditions: for Blackgrass plant response rating (0 to 100 scale): 62 g ai/ha, 0 is no effect, 13 to 15 days
Outline: as §1

corn (Zea mays) = experiment: Test B pre-/postemergence plant response; conditions: for Corn plant response rating (0 to 100 scale): 62 g ai/ha, 0 is no effect, 13 to 15 days
Outline: as §1

[4] = test system: downy bromegrass (Bromus tectorum); experiment: Test B pre-/postemergence plant response; conditions: for Bromegrass, Downy plant response rating (0 to 100 scale): 62 g ai/ha, 0 is no effect, 13 to 15 days
Outline: as §1

[5] = test system: giant foxtail (Setaria faberii); experiment: Test B pre-/postemergence plant response; conditions: for Foxtail, Giant plant response rating (0 to 100 scale): 62 g ai/ha, 0 is no effect, 13 to 15 days
Outline: as §1

[6] = test system: goosegrass (Eleusine indica); experiment: Test B pre-/postemergence plant response; conditions: for Goosegrass plant response rating (0 to 100 scale): 62 g ai/ha, 0 is no effect, 13 to 15 days
Outline: as §1

[7] = test system: green foxtail (Setaria viridis); experiment: Test B pre-/postemergence plant response; conditions: for Foxtail, Green plant response rating (0 to 100 scale): 62 g ai/ha, 0 is no effect, 13 to 15 days
Outline: as §1

[8] = test system: johnsongrass (Sorghum halepense); experiment: Test B pre-/postemergence plant response; conditions: for Johnsongrass plant response rating (0 to 100 scale): 62 g ai/ha, 0 is no effect, 13 to 15 days
Outline: as §1

[9] = test system: morningglory (Ipomoea coccinea); experiment: Test B pre-/postemergence plant response; conditions: for Morningglory plant response rating (0 to 100 scale): 62 g ai/ha, 0 is no effect, 13 to 15 days
Outline: as §1

[10] = test system: pigweed (Amaranthus retroflexus); experiment: Test B pre-/postemergence plant response; conditions: for Pigweed plant response rating (0 to 100 scale): 62 g ai/ha, 0 is no effect, 13 to 15 days
Outline: as §1

[11] = test system: ragweed (common ragweed, Ambrosia elatior); experiment: Test B pre-/postemergence plant response; conditions: for Ragweed plant response rating (0 to 100 scale): 62 g ai/ha, 0 is no effect, 13 to 15 days
Outline: as §1

soybean (Glycine max) = experiment: Test B pre-/postemergence plant response; conditions: for Soybean plant response rating (0 to 100 scale): 62 g ai/ha, 0 is no effect, 13 to 15 days
Outline: as §1

[12] = test system: velvetleaf (Abutilon theophrasti); experiment: Test B pre-/postemergence plant response; conditions: for Velvetleaf plant response rating (0 to 100 scale): 62 g ai/ha, 0 is no effect, 13 to 15 days
Outline: as §1

[13] = test system: wheat (Triticum aestivum); experiment: Test B pre-/postemergence plant response; conditions: for Wheat plant response rating (0 to 100 scale): 62 g ai/ha, 0 is no effect, 13 to 15 days
Outline: as §1

[14] = test system: canarygrass (Phalaris minor); experiment: Test B postemergence plant response; conditions: for Canarygrass plant response rating (0 to 100 scale): 62 g ai/ha, 0 is no effect, 13 to 15 days
Outline: (§2)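 Visual ratings from 0 (no effect) to 100 (complete control), made against controls 13–15 days after treatment, kept in a greenhouse. Compounds were applied postemergence to potted plants at the 1- to 4-leaf stage (2–18 cm).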

[15] = test system: chickweed (Stellaria media); experiment: Test B postemergence plant response; conditions: for Chickweed plant response rating (0 to 100 scale): 62 g ai/ha, 0 is no effect, 13 to 15 days
Outline: as §2

[16] = test system: winter barley (Hordeum vulgare); experiment: Test B postemergence plant response; conditions: for Barley plant response rating (0 to 100 scale): 62 g ai/ha, 0 is no effect, 13 to 15 days
Outline: as §2

[17] = 31 g ai/ha, postemergence, scale 0 to 100, 0 is no effect, 100 is complete control
[18] = postemergence, 100 is complete control
[19] = Postemergence, 250 g ai/ha, scale 0 to 100 (0 no effect, 100 complete control)
[20] = Postemergence, 125 g ai/ha, visual rating after 13 to 15 days, scale 0 (no effect) to 100 (complete control)

O=C1CCCC(O)=C1C(=O)c1cnc(C2CC2)n(-c2ccccc2)c1=O [Compound 87]
10: Ryegrass, Italian plant response rating (0 to 100 scale) [1, 18]
50: Bromegrass, Downy plant response rating (0 to 100 scale) [4, 18] | Plant response rating, Wheat [13, 19]
40: Plant response rating, Blackgrass [3, 19]
55: Corn plant response rating (0 to 100 scale) (corn (Zea mays); [18])
20: Plant response rating, Blackgrass [3, 20] | Plant response rating, Corn (corn (Zea mays); [17]) | Plant response rating, Bromegrass, Downy [4, 17]
45: Plant response rating, Johnsongrass [8, 19] | Plant response rating, Morningglory [9, 17] | Morningglory plant response rating (0 to 100 scale) [9, 18]
80: Plant response rating, Bromegrass, Downy [4, 19] | Foxtail, Giant plant response rating (0 to 100 scale) [5, 18] | Goosegrass plant response rating (0 to 100 scale) [6, 18] | Foxtail, Green plant response rating (0 to 100 scale) [7, 18]
60: Plant response rating, Ryegrass, Italian [1, 19] | Plant response rating, Bromegrass, Downy [4, 20]
100: Plant response rating, Bermudagrass [2, 19] | Plant response rating, Pigweed [10, 19] | Plant response rating, Soybean (soybean (Glycine max); [19]) | Plant response rating, Velvetleaf [12, 17] | Velvetleaf plant response rating (0 to 100 scale) [12, 18] | Plant response rating, Velvetleaf [12, 19] | Plant response rating, Chickweed [15, 17] | Chickweed plant response rating (0 to 100 scale) [15, 18] | Plant response rating, Chickweed [15, 20] | Plant response rating, Chickweed [15, 19]
0: Plant response rating, Canarygrass [14, 17] | Plant response rating, Barley [16, 17] | Barley plant response rating (0 to 100 scale) [16, 18] | Plant response rating, Barley [16, 20]
90: Plant response rating, Bermudagrass [2, 17] | Bermudagrass plant response rating (0 to 100 scale) [2, 18]
75: Plant response rating, Corn (corn (Zea mays); [20]) | Plant response rating, Corn (corn (Zea mays); [19]) | Plant response rating, Foxtail, Giant [5, 17] | Plant response rating, Goosegrass [6, 17] | Plant response rating, Foxtail, Green [7, 17]
65: Plant response rating, Morningglory [9, 19]
5: Plant response rating, Ryegrass, Italian [1, 17] | Plant response rating, Blackgrass [3, 17] | Blackgrass plant response rating (0 to 100 scale) [3, 18] | Plant response rating, Johnsongrass [8, 17] | Plant response rating, Barley [16, 19]
30: Canarygrass plant response rating (0 to 100 scale) [14, 18]
85: Plant response rating, Ragweed [11, 17]
35: Plant response rating, Wheat [13, 17] | Wheat plant response rating (0 to 100 scale) [13, 18] | Plant response rating, Canarygrass [14, 20] | Plant response rating, Canarygrass [14, 19]
95: Plant response rating, Foxtail, Giant [5, 19] | Plant response rating, Foxtail, Green [7, 19] | Ragweed plant response rating (0 to 100 scale) [11, 18]
25: Johnsongrass plant response rating (0 to 100 scale) [8, 18]
98: Plant response rating, Bermudagrass [2, 20] | Plant response rating, Goosegrass [6, 19] | Plant response rating, Pigweed [10, 17] | Pigweed plant response rating (0 to 100 scale) [10, 18] | Plant response rating, Ragweed [11, 19] | Plant response rating, Soybean (soybean (Glycine max); [17]) | Soybean plant response rating (0 to 100 scale) (soybean (Glycine max); [18])

O=C1CCCC(O)=C1C(=O)c1cnc(-c2ccccc2)n(C2CC2)c1=O [Compound 90]
60: Plant response rating, Goosegrass [6, 17] | Goosegrass plant response rating (0 to 100 scale) [6, 18] | Plant response rating, Ragweed [11, 17]
100: Plant response rating, Morningglory [9, 19] | Plant response rating, Pigweed [10, 19] | Plant response rating, Soybean (soybean (Glycine max); [19]) | Plant response rating, Velvetleaf [12, 19]
70: Plant response rating, Bermudagrass [2, 17] | Foxtail, Giant plant response rating (0 to 100 scale) [5, 18] | Plant response rating, Chickweed [15, 17]
90: Plant response rating, Foxtail, Green [7, 19] | Plant response rating, Chickweed [15, 19]
25: Corn plant response rating (0 to 100 scale) (corn (Zea mays); [18]) | Johnsongrass plant response rating (0 to 100 scale) [8, 18]
85: Plant response rating, Bermudagrass [2, 20] | Plant response rating, Bermudagrass [2, 19] | Plant response rating, Foxtail, Giant [5, 19] | Plant response rating, Pigweed [10, 17] | Plant response rating, Velvetleaf [12, 17] | Plant response rating, Chickweed [15, 20]
0: Plant response rating, Ryegrass, Italian [1, 17] | Ryegrass, Italian plant response rating (0 to 100 scale) [1, 18] | Plant response rating, Ryegrass, Italian [1, 19] | Plant response rating, Barley [16, 17]
15: Plant response rating, Corn (corn (Zea mays); [17])
80: Bermudagrass plant response rating (0 to 100 scale) [2, 18] | Chickweed plant response rating (0 to 100 scale) [15, 18]
35: Plant response rating, Wheat [13, 19]
10: Plant response rating, Bromegrass, Downy [4, 20] | Plant response rating, Bromegrass, Downy [4, 19] | Plant response rating, Johnsongrass [8, 17] | Wheat plant response rating (0 to 100 scale) [13, 18] | Canarygrass plant response rating (0 to 100 scale) [14, 18] | Plant response rating, Barley [16, 20]
75: Plant response rating, Corn (corn (Zea mays); [19]) | Plant response rating, Goosegrass [6, 19] | Ragweed plant response rating (0 to 100 scale) [11, 18]
65: Plant response rating, Foxtail, Giant [5, 17] | Plant response rating, Foxtail, Green [7, 17] | Foxtail, Green plant response rating (0 to 100 scale) [7, 18] | Plant response rating, Johnsongrass [8, 19] | Plant response rating, Morningglory [9, 17]
20: Plant response rating, Barley [16, 19]
45: Plant response rating, Corn (corn (Zea mays); [20])
30: Plant response rating, Blackgrass [3, 19] | Plant response rating, Canarygrass [14, 20] | Plant response rating, Canarygrass [14, 19]
5: Plant response rating, Blackgrass [3, 17] | Blackgrass plant response rating (0 to 100 scale) [3, 18] | Plant response rating, Blackgrass [3, 20] | Plant response rating, Bromegrass, Downy [4, 17] | Bromegrass, Downy plant response rating (0 to 100 scale) [4, 18] | Plant response rating, Wheat [13, 17] | Plant response rating, Canarygrass [14, 17] | Barley plant response rating (0 to 100 scale) [16, 18]
98: Pigweed plant response rating (0 to 100 scale) [10, 18] | Plant response rating, Soybean (soybean (Glycine max); [17]) | Soybean plant response rating (0 to 100 scale) (soybean (Glycine max); [18]) | Velvetleaf plant response rating (0 to 100 scale) [12, 18]
95: Morningglory plant response rating (0 to 100 scale) [9, 18] | Plant response rating, Ragweed [11, 19]
